Experimental data published in PubChem BioAssay (NCI).
“And” between values parts separate entries of the source, which are not always exact repeats. Equal values may be shown once.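 Following 48 hours of exposure in 96-well plates, responses at five concentrations were used to interpolate endpoints linearly. At the GI50, growth is halved. At the TGI there is no net growth.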

Key:
Experiment in all cases: growth of human tumour cells (NCI), 48 h
SW-620 colon = system: SW-620 colon
M14 melanoma = system: M14 melanoma
SK-MEL-2 melanoma = system: SK-MEL-2 melanoma
NCI/ADR-RES ovarian = system: NCI/ADR-RES ovarian
OVCAR-3 ovarian = system: OVCAR-3 ovarian
HT29 colon = system: HT29 colon
KM12 colon = system: KM12 colon
T-47D breast = system: T-47D breast
A549 NSCLC = system: A549 NSCLC
OVCAR-5 ovarian = system: OVCAR-5 ovarian

SMILES | GI50 (SW-620 colon) | TGI (SW-620 colon) | GI50 (M14 melanoma) | TGI (M14 melanoma) | GI50 (SK-MEL-2 melanoma) | TGI (SK-MEL-2 melanoma) | GI50 (NCI/ADR-RES ovarian) | TGI (NCI/ADR-RES ovarian) | GI50 (OVCAR-3 ovarian) | TGI (OVCAR-3 ovarian) | GI50 (HT29 colon) | TGI (HT29 colon) | GI50 (KM12 colon) | TGI (KM12 colon) | GI50 (T-47D breast) | TGI (T-47D breast) | GI50 (A549 NSCLC) | TGI (A549 NSCLC) | GI50 (OVCAR-5 ovarian) | TGI (OVCAR-5 ovarian)
O=C(c1ccccc1)c1ccc(Oc2ccc([N+](=O)[O-])cc2[N+](=O)[O-])cc1 | 4.36 µM | 23.7 µM | 3.09 µM | 31.6 µM | 4.57 µM | 22.6 µM | 4.12 µM | 65.3 µM | 2.3 µM | 5.07 µM | 4.08 µM | 20.8 µM | 2.72 µM | 7.34 µM | 2.82 µM | 23.5 µM | 19.7 µM | 59.7 µM | 3.43 µM | 24.1 µM
COC(=O)C(=O)C(C(=O)C(=O)Nc1nc2ccc(C)cc2s1)c1nc2ccc([N+](=O)[O-])cc2[nH]c1=O (stereo not drawn) |  | > 100 µM |  | > 100 µM |  | > 100 µM |  | > 100 µM |  | > 100 µM |  | > 100 µM |  | > 100 µM |  | > 100 µM |  | > 100 µM |  | > 100 µM
Cc1ccc(C(SCC(N)C(=O)O)(c2ccc(C)cc2)c2ccc(C)cc2)cc1 (stereo not drawn) | 1.64 µM | 15.8 µM | 0.729 µM | 2.37 µM | 2.72 µM | 20.5 µM | 15 µM | 53.7 µM | 2.22 µM | 7.39 µM | 3.55 µM | > 34.8 µM | 2.26 µM | 12.4 µM | 3.5 µM | 21.9 µM | 2.62 µM | 16.8 µM | 9.2 µM | > 48.6 µM
O=[N+]([O-])c1ccccc1N/N=C\c1c[nH]c2ccccc12 | 17.8 µM | > 100 µM | 34.7 µM | > 100 µM | 26.4 µM | > 100 µM | 8.85 µM | > 100 µM | 8.18 µM | > 64.9 µM | 16.8 µM | > 61.7 µM | 6.1 µM | > 100 µM | 3.52 µM | > 100 µM | 20.2 µM | > 100 µM | > 58.2 µM | > 100 µM
CN(C)c1ccc(N=C2C=CC(=[N+](C)C)C=C2)cc1 | 6.6 µM | 26.2 µM | 17.7 µM | 81.4 µM | 3.05 µM | 13 µM | 19.1 µM | > 100 µM | 4.99 µM | 17.7 µM | 3.74 µM | 22.9 µM | 3.91 µM | 15 µM | 4.37 µM | 21.2 µM | 5.21 µM | > 100 µM | 20.4 µM | 76.6 µM
C=CC(C1=CC(=O)C(OC)=CC1=O)c1ccccc1 (stereo not drawn) |  | 48.6 µM |  | 37.7 µM |  | 30.3 µM |  | 44.8 µM |  | 31.2 µM |  | 42 µM |  | 34.6 µM |  | 8.9 µM |  | > 62 µM |  | 39 µM
COc1ccc2cc(-c3cc4c(oc3=O)-c3ccccc3OC4O)c(=O)oc2c1 (stereo not drawn) | 15.9 µM | 29.7 µM | 22.1 µM | 43.8 µM | 15.6 µM | 31.4 µM | 17.7 µM | 31.7 µM | 15.4 µM | 30.6 µM | 17.1 µM | 31.5 µM | 18.2 µM | 34.9 µM | 13 µM | 33.6 µM | 14.5 µM | 28.2 µM | 17.3 µM | 31.3 µM
COc1cc(-c2nc3ccccc3s2)ccc1NC(=O)COc1ccc(Cl)cc1 | 53.7 µM | > 100 µM | 8.54 µM | > 100 µM | 3.52 µM | 15.3 µM | 3.22 µM | 27.6 µM | 6.8 µM | > 100 µM | 3.66 µM | > 100 µM | 3.91 µM | > 100 µM | 4.42 µM | > 100 µM | 3.07 µM | > 100 µM | 13.4 µM | > 100 µM
Cn1cc(C2=C(c3cn(C)c4c([N+](=O)[O-])cccc34)C(=O)NC2=O)c2ccccc21 | > 25 µM | > 25 µM | > 25 µM | > 25 µM | > 25 µM | > 25 µM | > 25 µM | > 25 µM | > 25 µM | > 25 µM | > 25 µM | > 25 µM | > 25 µM | > 25 µM | > 25 µM | > 25 µM | > 25 µM | > 25 µM | > 25 µM | > 25 µM
N#Cc1ccccc1NC(=O)C(=O)c1c(O)c2ccccc2oc1=O |  | > 100 µM |  | > 100 µM |  | > 100 µM |  | > 100 µM |  | > 100 µM |  | > 100 µM |  | > 100 µM |  | > 100 µM |  | > 100 µM |  | > 100 µM
COc1ccc(C(=O)COC(=O)[C@H](C[Se][Se]C[C@H](NC(=O)c2ccc(Br)cc2F)C(=O)OCC(=O)c2ccc(OC)cc2)NC(=O)c2ccc(Br)cc2F)cc1 | 1.44 µM | 3.89 µM | 0.588 µM | 1.85 µM | 0.862 µM | 2.57 µM | 0.399 µM | 1.39 µM | 0.88 µM | 2.31 µM | 0.879 µM | 7.48 µM | 0.376 µM | 1.55 µM | 1.73 µM | 6.03 µM | 0.421 µM | 3.79 µM | 0.816 µM | 2.54 µM
O=C(CN(/C=C/C(=O)C(F)(F)F)c1ccc(Cl)cc1)c1ccccc1 | 14.6 µM | 62.1 µM | 10.6 µM | 22.9 µM | 15.5 µM | 35.6 µM | 14.1 µM | 30.3 µM | 9.15 µM | 46.3 µM | 25.8 µM | > 100 µM | 10.8 µM | 36.6 µM | 4.08 µM | > 100 µM | 12 µM | > 100 µM | 15.6 µM | 40.7 µM
COC1CCN(C(=O)c2cc(Cc3n[nH]c(=O)c4ccccc34)ccc2F)CC1 | > 100 µM | > 100 µM | > 90.9 µM | > 100 µM | > 47.1 µM | > 100 µM | > 76.8 µM | > 100 µM | 74.1 µM | > 100 µM | > 100 µM | > 100 µM | > 100 µM | > 100 µM | 53.6 µM | > 100 µM | 58.9 µM | > 100 µM | > 100 µM | > 100 µM
CC(=O)c1cc(C(=O)c2ccc3c(c2)Sc2ccccc2N3)c2c(C)cc(C)cn12 | 0.372 µM | > 100 µM | 0.253 µM | > 100 µM | 0.317 µM | > 100 µM | 0.264 µM | 8.16 µM | 0.222 µM | 0.596 µM | 0.315 µM | 0.962 µM | 0.353 µM | > 46.7 µM | 12.8 µM | > 100 µM | 0.337 µM | > 55.6 µM | 0.794 µM | > 100 µM
CN(C)CCNC(=O)C(C)(C)Oc1ccc(C(=O)c2ccc(Cl)cc2)cc1Cl |  | 18.3 µM | 1.82 µM | 3.67 µM and 5.99 µM |  | 32.6 µM |  | 26.1 µM |  | 25.7 µM |  | 8.18 µM and 9.21 µM |  | 23 µM | 5.87 µM | 24.4 µM | 12.2 µM | 24.6 µM |  | 28.9 µM
Clc1cccc(Cl)c1C1CSc2ccccc2N=C1c1ccccc1 (stereo not drawn) | 2.34 µM | 5.64 µM | 8.44 µM | 23.1 µM | 11.2 µM | 24.3 µM | 4.14 µM | 32 µM | 3.92 µM | 13.4 µM | 3.17 µM | 8.64 µM | 2.15 µM | 4.69 µM | 8.39 µM | 34.5 µM | 12.2 µM | 28.1 µM | 3.88 µM | 13.2 µM
C=CC(=O)NCc1cccc(Nc2ncc(Br)c(NCCCNC(=O)C3CCC3)n2)c1 | 0.661 µM and 1.15 µM | 12.5 µM and 11.7 µM | 1.86 µM and 1.19 µM | 10.2 µM and 5.91 µM | 2.17 µM and 2.93 µM | 5.57 µM and 7.08 µM | 7.28 µM and 7.94 µM | 12.5 µM and > 25 µM | 1.57 µM and 1.18 µM | 4.78 µM and 8.16 µM | 1.67 µM and 0.27 µM | 12.5 µM and 4.83 µM | 0.806 µM and 0.861 µM | 12.5 µM and > 25 µM | 4.86 µM and 5.07 µM | 12.5 µM and 22.5 µM | 1.49 µM and 0.901 µM | 12.5 µM and 11.6 µM | 0.709 µM and 2.56 µM | 12.5 µM and 15.6 µM
CC(C)(C)C(=O)OCOP(=O)(OCOC(=O)C(C)(C)C)C1CC(O)N(O)C1=O (stereo not drawn) | 4.46 µM | > 100 µM | 8.44 µM | > 100 µM | 5.14 µM | 92.1 µM | 4.39 µM | > 100 µM | 9.79 µM | > 100 µM | 3.07 µM | 16.4 µM | 4.79 µM | > 100 µM | 5.9 µM | 89.7 µM | 30.7 µM | > 100 µM | 20.4 µM | > 100 µM
CCCCCCCCCCCCCC1=NCCN1CCO | 2.25 µM | 5.22 µM | 3.68 µM | 10.9 µM | 2.86 µM | 9.01 µM | 5 µM | 21.2 µM | 2.73 µM | 6.48 µM | 2.81 µM | > 28.6 µM | 3 µM | 9 µM | 4.57 µM | 13.1 µM | 3.52 µM | > 100 µM | 5.47 µM | 18.3 µM
